# Values of other authors in patent publication US20040087484A1, “Combination of organic compounds” (priority 2003, published 2004).
# Test system: male rats
# Details: used for the treatment of hypertensive disorder in male rats
compound,measurement,value
CCCCc1nc(Cl)c(CO)n1Cc1ccc(-c2ccccc2-c2nn[nH]n2)cc1 [losartan],preservation of sexual function,advantage in preservation of sexual function
